Reference: US20240374879A1, “METHODS AND COMPOSITIONS TO REDUCE CELLULAR DEPOSITION, AND HYDROCEPHALUS SHUNT FAILURE” (Wayne State University, priority 2021, published 2024)

Legend:
[1] = test system: macrophage toll-like receptor (TLR) 4 and TLR 2/6 signaling pathway; details: cited from earlier work
[2] = test system: Human astrocyte cells; experiment: Multiplex ELISA of cytokine concentrations in astrocyte culture media; type: cell-based; details: for % Change of Cytokine Concentration IL-1α, GIT 27 vs DMSO treated vehicle / % Change of Cytokine Concentration IL-1β, GIT 27 vs DMSO treated vehicle / % Change of Cytokine Concentration IL-6, GIT 27 vs DMSO treated vehicle / % Change of Cytokine Concentration IL-8, GIT 27 vs DMSO treated vehicle / % Change of Cytokine Concentration IL-10, GIT 27 vs DMSO treated vehicle / % Change of Cytokine Concentration TNF-α, GIT 27 vs DMSO treated vehicle: GIT 27 1000 μg/mL
Description: Media Creation: A media stock solution was created by combining astrocyte media (ScienCell), supplement kit, 10 mL fetal bovine serum (FBS), 5 mL penicillin/streptomycin, and 5 mL astrocyte growth serum (ScienCell), and an additional 10 mL FBS (ScienCell). IL-1β and IL-10 were diluted to a concentration of 50,000 ng/mL and 100,000 ng/mL, respectively, in phosphate buffer solution (PBS, w/v). GIT 27 was dissolved in a dimethyl sulfoxide (DMSO) vehicle (Sigma-Aldrich) to a concentration of 20 mg/mL (w/v).
Media solutions for the different groups were made directly before each media change. Cytokines IL-1β or IL-10 were added to the media stock solution for a final concentration of 14.67 ng/mL. GIT 27 was added for a concentration of 1000 μg/mL in the media stock solution for our experimental group. […] Our vehicle group contained 50 μL/mL DMSO alone, which is proportional to the amount in the GIT 27 treated group. Concentrations were then made for evaluation of dose and time dependency (FIGS. 6A-6F).
Cell Culture: Human astrocyte cells were initially grown in T75 flasks with media changes every three days using basic astrocyte media and washed with Hanks Balanced Salt Solution without Calcium and Magnesium (Gibco). Once the flasks came to confluency, the cells were trypsinized using Trypsin-EDTA at 0.25% (Gibco) and seeded at a seeding density of 250,000 cells per well. These samples were broken up into three treatment groups: control, DMSO, and GIT 27 tested as a pre-treatment, simultaneous treatment, and post-treatment (FIGS. 6A-6F). Each group and treatment time were then either exposed to IL-1β or IL-10 separately at concentrations described for media creation.
ELISA: As previously published, the Bursky Center for Human Immunology & Immunotherapy Programs Immunomonitoring Laboratory at Washington University School of Medicine ran the multiplex assays according to the manufacturer's protocol (Khodadadei et al., bioRxiv 2021.11.04.467357, 2021. https://doi.org/10.1101/2021.11.04.467357). Samples of culture media analyzed were collected on days 1, 5, 7, 9, 12, and 14 of culture following seeding day. Each frozen supernatant media sample was rapidly thawed at 37° C. and centrifuged at 15,000 G for five minutes prior to incubating with the two-multiplex immunoassay for the following inflammatory cytokines: IL-1α, IL-1β, IL-6, TNF-α, IL-8, IL-10 (ThermoFisher Scientific), C3, and C1q (Millipore Sigma). Magnetic beads and assay buffer were added to all the wells of a 96 well-plate. Media samples and standards were then added in duplicate. The wells were thoroughly washed, and the detection antibody was then added followed by a streptavidin phycoerythrin incubation. Beads were resuspended with sheath fluid and 50 beads per region were acquired on a Luminex FLEXMAP3D system. The concentration of each analyte was then calculated by comparing the sample mean fluorescent intensity to the appropriate standard curve. Belysa v.1 software (Millipore Sigma) was used to generate a 5-parameter logistical curve fit algorithm. Protein concentration is reported as pg/mL for each analyte.
Statistical Analysis: Three conditions were tested in this experiment, treatment group, treatment time, and IL B or IL10 exposure, with a total of 16 different samples tested with an n=five of replicates. The three treatment groups tested were a control, vehicle control (DMSO), and GIT 27 (G27). Each treatment group was tested as a pre-treatment (denoted Pre-), dose simultaneous to treatment (denoted Sim-), and post-treatment (denoted Post-) as time points with respect to shunt insertion represented by exposure to either IL-1β (IL1B) or IL-10 (IL10). Utilizing the abbreviations described here we combined these to allow for an easier understand of the results presented. An example of this can be control Pre-IL1B, DMSO Pre-IL1B, and G27 Pre-IL1B which represents the three treatment groups when used as a pre-treatment to IL-1β exposure.

[3] = Solubility of GIT 27; type: physicochemical
[4] = G27 Sim-IL1B compared to G27 Post-IL1B
[5] = G27 Sim-IL1B compared to G27 Pre-IL1B
[6] = G27 Sim-IL10 compared to both G27 Pre-IL10 and G27 Post-IL10
[7] = Post-IL10, vs control Post-IL10
[8] = Post-Treatment (C), exposed to IL-1β
[9] = Post-Treatment (C), exposed to IL-10
[10] = Pre-IL1B, vs DMSO Pre-IL1B (not vs control)
[11] = Pre-Treatment (A), exposed to IL-1β
[12] = Pre-Treatment (A), exposed to IL-10
[13] = Simultaneous Treatment (B), exposed to IL-1β
[14] = Simultaneous Treatment (B), exposed to IL-10

solubility [3]: only soluble in DMSO
SMILES: O=C(O)CC1CC(c2ccccc2)=NO1 (centres unmarked) [GIT 27, 4,5-Dihydro-3-phenyl-5-isoxazoleacetic acid]
secretion of pro-inflammatory cytokines IL-1β, IL-10 and IFN-γ [1]: reduces
TNF-α secretion ([1]; macrophages): inhibits
IL-10 concentration by treatment time ([2]; G27 Post-IL10 compared to G27 Sim-IL10): significantly lower
TNF-α concentration by treatment time ([2]; G27 Pre-IL10 compared to G27 Sim-IL10 and G27 Post-IL10): significantly higher
IL-6 concentration by treatment time [2, 4]: significantly lower
TNF-α concentration by treatment time [2, 4]: significantly lower
IL-10 concentration by treatment time [2, 5]: lower
TNF-α concentration by treatment time [2, 5]: lower
IL-1α concentration by treatment time [2, 6]: significantly higher
IL-1β concentration by treatment time [2, 6]: significantly higher
IL-1α concentration compared to both control and DMSO ([2]; Post-IL1B): significantly lower
IL-10 concentration compared to both control and DMSO ([2]; Post-IL1B): significantly lower
IL-6 concentration compared to DMSO ([2]; Post-IL1B, vs DMSO Post-IL1B): significantly lower
IL-8 concentration compared to DMSO ([2]; Post-IL1B, vs DMSO Post-IL1B): significantly lower
TNF-α concentration compared to DMSO ([2]; Post-IL1B, vs DMSO Post-IL1B): significantly lower
IL-1α concentration compared to control and DMSO ([2]; Post-IL10): significantly lower
IL-6 concentration compared to control and DMSO ([2]; Post-IL10): significantly lower
IL-8 concentration compared to control and DMSO ([2]; Post-IL10): significantly lower
TNF-α concentration compared to DMSO ([2]; Post-IL10, vs DMSO Post-IL10): significantly lower
IL-10 concentration compared to control [2, 7]: significantly lower
TNF-α concentration compared to control [2, 7]: significantly lower
% Change of Cytokine Concentration IL-1α, GIT 27 vs DMSO treated vehicle [2, 8]: −20.17%
% Change of Cytokine Concentration IL-1β, GIT 27 vs DMSO treated vehicle [2, 8]: −16.52%
% Change of Cytokine Concentration IL-6, GIT 27 vs DMSO treated vehicle [2, 8]: −28.57%
% Change of Cytokine Concentration IL-8, GIT 27 vs DMSO treated vehicle [2, 8]: −57.49%
% Change of Cytokine Concentration IL-10, GIT 27 vs DMSO treated vehicle [2, 8]: −33.02%
% Change of Cytokine Concentration TNF-α, GIT 27 vs DMSO treated vehicle [2, 8]: −33.45%
% Change of Cytokine Concentration IL-1α, GIT 27 vs DMSO treated vehicle [2, 9]: −85.58%
% Change of Cytokine Concentration IL-1β, GIT 27 vs DMSO treated vehicle [2, 9]: 0.00%
% Change of Cytokine Concentration IL-6, GIT 27 vs DMSO treated vehicle [2, 9]: −76.82%
% Change of Cytokine Concentration IL-8, GIT 27 vs DMSO treated vehicle [2, 9]: −78.86%
% Change of Cytokine Concentration IL-10, GIT 27 vs DMSO treated vehicle [2, 9]: −71.33%
% Change of Cytokine Concentration TNF-α, GIT 27 vs DMSO treated vehicle [2, 9]: −80.45%
IL-1α concentration, difference between treatment groups ([2]; Pre-IL1B): no significant difference
IL-8 concentration, difference between treatment groups ([2]; Pre-IL1B): no significant difference
IL-10 concentration, difference between treatment groups ([2]; Pre-IL1B): no significant difference
TNF-α concentration, difference between treatment groups ([2]; Pre-IL1B): no significant difference
IL-1β concentration compared to DMSO [2, 10]: significantly lower
IL-6 concentration compared to DMSO [2, 10]: significantly lower
any of the cytokine concentrations, difference between treatment groups ([2]; Pre-IL10): no significant difference
% Change of Cytokine Concentration IL-1α, GIT 27 vs DMSO treated vehicle [2, 11]: −30.49%
% Change of Cytokine Concentration IL-1β, GIT 27 vs DMSO treated vehicle [2, 11]: −42.70%
% Change of Cytokine Concentration IL-6, GIT 27 vs DMSO treated vehicle [2, 11]: −76.60%
% Change of Cytokine Concentration IL-8, GIT 27 vs DMSO treated vehicle [2, 11]: −31.56%
% Change of Cytokine Concentration IL-10, GIT 27 vs DMSO treated vehicle [2, 11]: 26908.58%
% Change of Cytokine Concentration TNF-α, GIT 27 vs DMSO treated vehicle [2, 11]: −12.41%
% Change of Cytokine Concentration IL-1α, GIT 27 vs DMSO treated vehicle [2, 12]: 11.34%
% Change of Cytokine Concentration IL-1β, GIT 27 vs DMSO treated vehicle [2, 12]: 0.00%
% Change of Cytokine Concentration IL-6, GIT 27 vs DMSO treated vehicle [2, 12]: 21.96%
% Change of Cytokine Concentration IL-8, GIT 27 vs DMSO treated vehicle [2, 12]: −43.65%
% Change of Cytokine Concentration IL-10, GIT 27 vs DMSO treated vehicle [2, 12]: −6.42%
% Change of Cytokine Concentration TNF-α, GIT 27 vs DMSO treated vehicle [2, 12]: −13.92%
IL-1α concentration compared to control ([2]; Sim-IL1B, vs control Sim-IL1B): significantly lower
IL-1β concentration compared to control ([2]; Sim-IL1B, vs control Sim-IL1B): significantly lower
IL-10 concentration compared to control ([2]; Sim-IL1B, vs control Sim-IL1B): significantly lower
TNF-α concentration compared to control ([2]; Sim-IL1B, vs control Sim-IL1B): significantly lower
IL-1α concentration compared to DMSO and control ([2]; Sim-IL10): significantly decrease
IL-8 concentration compared to DMSO and control ([2]; Sim-IL10): significantly decrease
IL-10 concentration compared to both DMSO and control ([2]; Sim-IL10): significantly lower
TNF-α concentration compared to control ([2]; Sim-IL10): significantly lowered
% Change of Cytokine Concentration IL-1α, GIT 27 vs DMSO treated vehicle [2, 13]: −40.83%
% Change of Cytokine Concentration IL-1β, GIT 27 vs DMSO treated vehicle [2, 13]: −8.24%
% Change of Cytokine Concentration IL-6, GIT 27 vs DMSO treated vehicle [2, 13]: 31.97%
% Change of Cytokine Concentration IL-8, GIT 27 vs DMSO treated vehicle [2, 13]: −34.82%
% Change of Cytokine Concentration IL-10, GIT 27 vs DMSO treated vehicle [2, 13]: −31.11%
% Change of Cytokine Concentration TNF-α, GIT 27 vs DMSO treated vehicle [2, 13]: −8.65%
% Change of Cytokine Concentration IL-1α, GIT 27 vs DMSO treated vehicle [2, 14]: −66.52%
% Change of Cytokine Concentration IL-1β, GIT 27 vs DMSO treated vehicle [2, 14]: −89.31%
% Change of Cytokine Concentration IL-6, GIT 27 vs DMSO treated vehicle [2, 14]: −28.89%
% Change of Cytokine Concentration IL-8, GIT 27 vs DMSO treated vehicle [2, 14]: −81.04%
% Change of Cytokine Concentration IL-10, GIT 27 vs DMSO treated vehicle [2, 14]: −49.58%
% Change of Cytokine Concentration TNF-α, GIT 27 vs DMSO treated vehicle [2, 14]: −53.95%
IFN-γ concentration ([2]; any of the treatment groups): no detectable concentration
